Measurements as given in patent US20130267494A1, “1,4-OXAZEPANE DERIVATIVES” (priority 2010, published 2013).
Counter-ions that a name gives are not always drawn.

Experiments:
SD female rats = experiment: Measurement of urethral resistance increasing effect (leak point pressure, oral administration); type: in vivo, rat
Method: The urethral resistance increasing effect in rat was measured by a modified method of Matsumoto et al. (WO2009/063992) as follows. That is, SD female rats (CLEA Japan, Inc.) were anesthetized with isoflurane (1.0%; Abbott), and the spinal cord was transected at Th8-9 to avoid the voiding reflex. After laparotomy, an intravesical pressure measurement catheter and a saline infusion catheter (PE-100; Clay Adams) were inserted into the bladder. Thereafter, the abdomen of the rat was closed with aronalpha A “Sankyo” (Daiichi Sankyo). The rat with an inserted catheter was placed in a Bollman cage (KN-326 Bollman cage TYPE III; Natsume). The intravesical pressure measurement catheter was connected to a computer via a pressure transducer (DX-100; Nihon Koden), an amplifier (RPM-6008M; Nihon Koden/303638; SAN-EI), and a multi-channel data analyzer (MP150/MP100; Biopack), and changes in the intravesical pressure were recorded on a hard disc at a frequency of 100 samples/sec. The saline infusion catheter was connected to a 50 mL syringe (Terumo) filled with saline colored with Evans Blue (Wako). The saline was infused into the bladder from the 50 mL syringe filled with saline at a rate of 0.1 mL/sec by using an infusion pump (Kds100; KD Scientific). When the saline leaked from the urethral orifice, infusion was discontinued, and the saline in the bladder was released. The maximum pressure observed during infusion of saline into the bladder and leakage thereof was taken as an LPP (Leak point pressure) value. The measurement was repeated until the LPP value was stabilized, and an average of continuous three stable LPP values was taken as the result. In addition, the measurement of drug effect was started 1 hr after the animal was placed in the Bollman cage. The LPP value (Pre value) was measured, a drug was orally administered, and the measurement of LPP value (Post value) was again started 15 min, 30 min, 1 hr, 2 hr and 4 hr after administration. The urethral resistance increasing effect by the drug was shown by the difference between the LPP value (Post value) and LPP value (Pre value). The drug was orally administered at 2.0 mL/kg, using 0.5% methylcellulose as a vehicle. For detection of a significant difference in the urethral resistance increasing effect by the drug as compared to the vehicle, the following method was used. For comparison of 3 or more groups, the Williams' test was used for a parametric test, and the Shirley-Williams' test was used for a non-parametric test. For comparison of 2 groups, the Student's t-test was used for a parametric test, and the […] was used for a non-parametric test.

[1] = target: T1, human dopamine transporter (Homo sapiens, UniProt Q01959); experiment: Inhibitory action on human dopamine transporter ([3H]-dopamine uptake in CHO cells); type: cell-based; settings: CHO, compound 1 μM; relative to inhibitory activity of 100 μM Nomifensine as 100%; read-out: inhibitory rate (%)
T1 construct: expressed in transfected cells
T1 sequence (Q01959 whole entry): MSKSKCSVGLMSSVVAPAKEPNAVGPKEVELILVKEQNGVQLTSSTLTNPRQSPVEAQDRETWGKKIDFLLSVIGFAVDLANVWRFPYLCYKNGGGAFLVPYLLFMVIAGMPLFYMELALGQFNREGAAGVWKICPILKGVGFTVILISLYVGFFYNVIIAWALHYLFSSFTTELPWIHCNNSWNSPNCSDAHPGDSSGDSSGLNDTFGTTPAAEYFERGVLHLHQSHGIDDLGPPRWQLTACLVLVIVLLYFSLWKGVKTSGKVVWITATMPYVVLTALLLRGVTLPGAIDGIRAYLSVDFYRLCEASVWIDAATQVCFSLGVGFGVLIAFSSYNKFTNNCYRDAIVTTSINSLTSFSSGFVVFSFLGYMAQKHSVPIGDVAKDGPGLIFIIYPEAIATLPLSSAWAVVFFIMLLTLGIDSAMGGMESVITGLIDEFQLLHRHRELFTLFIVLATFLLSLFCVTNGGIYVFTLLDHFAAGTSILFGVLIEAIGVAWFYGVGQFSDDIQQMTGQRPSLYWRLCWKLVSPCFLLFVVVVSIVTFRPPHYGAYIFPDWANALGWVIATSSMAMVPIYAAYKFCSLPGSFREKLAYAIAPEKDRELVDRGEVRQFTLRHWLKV
How it was run: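 CHO-K1 cells stably expressing human dopamine transporter, exposed to compound at 10 μM or 1 μM in HEPES-buffered saline with 0.5% BSA. [3H]-dopamine uptake measured over 60 min by scintillation counting. Activity expressed relative to 100 μM nomifensine as 100%.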

| inhibition at 1 µM [1] | Structure (SMILES) | urethral resistance increasing effect (cmH2O) (SD female rats; 3.0 mg/kg oral, 15 min later) | urethral resistance increasing effect (cmH2O) (SD female rats; 3.0 mg/kg oral, 30 min later) | urethral resistance increasing effect (cmH2O) (SD female rats; 10.0 mg/kg oral, 15 min later) | urethral resistance increasing effect (cmH2O) (SD female rats; 10.0 mg/kg oral, 30 min later) | urethral resistance increasing effect (cmH2O) (SD female rats; 1.0 mg/kg oral, 15 min later) | urethral resistance increasing effect (cmH2O) (SD female rats; 1.0 mg/kg oral, 30 min later) |
| --- | --- | --- | --- | --- | --- | --- | --- |
| 53% | O=c1[nH]c(-c2ccccc2O[C@@H]2CNCCO[C@H]2c2ccc(Cl)c(F)c2)no1 [Example 577, 3-(2-{[(6R, 7S)-7-(4-chloro-3-fluoro-phenyl)-1,4-oxazepan-6-yl]oxy}phenyl)-1,2,4-oxadiazol-5(4H)-one] | 14.3 ± 3.0 cmH2O | 13.1 ± 3.1 cmH2O | 18.7 ± 1.8 cmH2O | 15.4 ± 1.5 cmH2O | – | – |
| 51% | NS(=O)(=O)N[C@@H]1CNCCO[C@H]1c1ccc(Cl)c(Cl)c1 [Example 37, N-[(6R,7S)-7-(3,4-dichlorophenyl)-1,4-oxazepan-6-yl]sulfamide monohydrochloride] | 8.5 ± 1.4 cmH2O | 7.6 ± 1.6 cmH2O | 16.3 ± 1.2 cmH2O | 17.2 ± 1.9 cmH2O | – | – |
| 33% | O=c1[nH]c(-c2cccn(C[C@@H]3CNCCO[C@H]3c3ccc(Cl)c(Cl)c3)c2=O)no1 [Example 31, 1-{[(6S,7R)-7-(3,4-dichlorophenyl)-1,4-oxazepan-6-yl]methyl}-3-(5-oxo-4,5-dihydro-1,2,4-oxadiazol-3-yl)pyridin-2(1H)-one monohydrochloride] | 13.2 ± 3.8 cmH2O | 14.5 ± 3.6 cmH2O | 16.2 ± 2.1 cmH2O | 14.3 ± 2.2 cmH2O | 6.7 ± 2.5 cmH2O | 9.0 ± 3.8 cmH2O |
